Source: the supplement of paper PMC10920090

What was measured:
MDA-MB-231 [1] = assay: drug sensitivity score (DSS), cell viability CellTiter-Glo; higher = more sensitive; extreme values may be limits of the assay; conditions: 72 h
MDA-MB-231 [2] = assay: drug sensitivity score (DSS), cytotoxicity CellTox Green; higher = more cytotoxic; extreme values may be limits of the assay; conditions: 72 h
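Throughout, for drug sensitivity score (DSS), cytotoxicity CellTox Green: DSS summarises each dose–response curve by combining IC50, EC50, maximal inhibition and efficacy across drug concentrations.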

| Compound | drug sensitivity score (MDA-MB-231 [1]; shRNA: shPPFIA1_1) [DSS] | drug sensitivity score (MDA-MB-231 [1]; shRNA: shScramble) [DSS] | drug sensitivity score (MDA-MB-231 [2]; shRNA: shPPFIA1_1) [DSS] | drug sensitivity score (MDA-MB-231 [2]; shRNA: shScramble) [DSS] |
| --- | --- | --- | --- | --- |
| COc1cc(OC)c(/C=C/S(=O)(=O)Cc2ccc(OC)c(NCC(=O)O)c2)c(OC)c1 [Rigosertib] | 0 | 5.3 | 2.4 | 2.4 |
| C=CC(=O)Nc1cccc(Nc2nc(Nc3ccc(N4CCN(C(C)=O)CC4)cc3OC)ncc2C(F)(F)F)c1 [Rociletinib] | 0 | 2.8 | 0 | 0 |
| O=C(CCCCCCNC(=O)c1cnc(N(c2ccccc2)c2ccccc2)nc1)NO [Rocilinostat] | 2.1 | 3.5 | 6.7 | 1 |
| CS(=O)(=O)c1ccc(C2=C(c3ccccc3)C(=O)OC2)cc1 [Rofecoxib] | 0 | 0 | 0 | 0 |
| C/C=C1\NC(=O)[C@H]2CSSCC/C=C/[C@H](CC(=O)N[C@H](C(C)C)C(=O)N2)OC(=O)[C@H](C(C)C)NC1=O [Romidepsin] | 20.5 | 29 | 33.6 | 26.9 |
| CN(C)C[C@@H]1CCn2cc(c3ccccc32)C2=C(C(=O)NC2=O)c2cn(c3ccccc23)CCO1 [Ruboxistaurin] | 7.2 | 7 | 3.8 | 5.5 |
| CNCc1ccc(-c2[nH]c3cc(F)cc4c3c2CCNC4=O)cc1 [Rucaparib] | 0 | 0 | 0 | 0 |
| N#CC[C@H](C1CCCC1)n1cc(-c2ncnc3[nH]ccc23)cn1 [Ruxolitinib] | 0.6 | 2.1 | 0 | 0 |
| CC(C)N(CCCNC(=O)Nc1ccc(C(C)(C)C)cc1)C[C@H]1O[C@@H](n2cc(Br)c3c(N)ncnc32)[C@H](O)[C@@H]1O [SGC0946] | 5 | 1.5 | 5.5 | 0.6 |
| COc1ccc(CCc2nc3cc(-c4c(C)noc4C)ccc3n2C[C@H](C)N2CCOCC2)cc1Cl [SGC-CBP30] | 0 | 2.4 | 0 | 0 |
| CN1CCC(CNc2ccc3ncc(-c4cccc(OC(F)(F)F)c4)n3n2)CC1 [SGI-1776] | 9 | 9 | 4.9 | 4.7 |
| Cn1cc(-c2ccc3nnc(Sc4ccc5ncccc5c4)n3n2)cn1 [SGX-523] | 0.9 | 0 | 0 | 0.9 |
| CN(CC(=O)N(Cc1ccc(C2CCCCC2)cc1)c1ccc(C(=O)O)cc1)S(=O)(=O)c1c(F)c(F)c(F)c(F)c1F [SH-4-54] | 3.8 | 5.7 | 7.3 | 7.7 |
| CC(C)NC(=O)COc1cccc(-c2nc(Nc3ccc4[nH]ncc4c3)c3ccccc3n2)c1 [SLx-2119] | 0 | 0 | 0 | 0 |
| CCc1c2c(nc3ccc(O)cc13)-c1cc3c(c(=O)n1C2)COC(=O)[C@]3(O)CC [SN-38] | 0.2 | 7.6 | 14.9 | 2 |
| CC(C)(C)c1cnc(CSc2cnc(NC(=O)C3CCNCC3)s2)o1 [SNS-032] | 5.8 | 13.1 | 10.5 | 6.3 |
| O=C(Nc1cccc(Cl)c1)Nc1ncc(CCNc2ncnc3ccsc23)s1 [SNS-314] | 0 | 0 | 0 | 0 |
| Cc1cc2c(C(=O)NC[C@H](C)c3ccccc3)c(O)c(O)cc2c(O)c1-c1c(C)cc2c(C(=O)NC[C@H](C)c3ccccc3)c(O)c(O)cc2c1O [Sabutoclax] | 11.8 | 13.6 | 11.4 | 5.6 |
| CNC(=O)CN1CCC(Oc2cc3c(Nc4cccc(Cl)c4F)ncnc3cc2OC)CC1 [Sapitinib] | 0 | 8.5 | 0 | 0 |
| CN1CCN(CCOc2cc(OC3CCOCC3)c3c(Nc4c(Cl)ccc5c4OCO5)ncnc3c2)CC1 [Saracatinib] | 2.9 | 2.7 | 2.5 | 1.3 |
| CC[C@H](CO)Nc1nc(NCc2ccccc2)c2ncn(C(C)C)c2n1 [Seliciclib] | 0 | 0 | 0 | 0 |

| Compound | drug sensitivity score (MDA-MB-231 [1]; shRNA: shPPFIA1_1) [DSS] | drug sensitivity score (MDA-MB-231 [1]; shRNA: shScramble) [DSS] | drug sensitivity score (MDA-MB-231 [2]; shRNA: shPPFIA1_1) [DSS] | drug sensitivity score (MDA-MB-231 [2]; shRNA: shScramble) [DSS] |
| --- | --- | --- | --- | --- |
| O=C(/C=C\n1cnc(-c2cc(C(F)(F)F)cc(C(F)(F)F)c2)n1)NNc1cnccn1 [Selinexor] | 8.6 | 13.5 | 5.8 | 8.1 |
| Cn1cnc2c(F)c(Nc3ccc(Br)cc3Cl)c(C(=O)NOCCO)cc21 [Selumetinib] | 0.3 | 5.2 | 3.8 | 8 |
| Cc1cc(C)c(/C=C2\C(=O)Nc3ccccc32)[nH]1 [Semaxanib] | 0 | 0 | 0.2 | 3.5 |
| c1ccc2c(CCNc3ccc(Nc4ccncc4)cc3)c[nH]c2c1 [Serdemetan] | 3 | 0.7 | 0 | 0 |
| O=C(O)c1ccc2c(c1)nc(Nc1cccc(Cl)c1)c1ccncc12 [Silmitasertib] | 0 | 3.5 | 0 | 0 |
| CO[C@H]1C[C@@H]2CC[C@@H](C)[C@@](O)(O2)C(=O)C(=O)N2CCCC[C@H]2C(=O)O[C@H]([C@H](C)C[C@@H]2CC[C@@H](O)[C@H](OC)C2)CC(=O)[C@H](C)/C=C(\C)[C@@H](O)[C@@H](OC)C(=O)[C@H](C)C[C@H](C)/C=C/C=C/C=C/1C [Sirolimus] | 0 | 6 | 0 | 0 |
| Cc1c(C(=O)Nc2ccc(N3C[C@@H](C)O[C@@H](C)C3)nc2)cccc1-c1ccc(OC(F)(F)F)cc1 [Sonidegib] | 1.1 | 2.4 | 0 | 0 |
| C=CCN(/C=C1/C(=O)O[C@H](COC)[C@@]2(C)C1=C(O)C(=O)C1=C2[C@H](OC(C)=O)C[C@]2(C)C(=O)CC[C@@H]12)CC=C [Sonolisib] | 0 | 0 | 0 | 0 |
| CNC(=O)c1cc(Oc2ccc(NC(=O)Nc3ccc(Cl)c(C(F)(F)F)c3)cc2)ccn1 [Sorafenib] | 0 | 0 | 0 | 0 |
| CN1CCN(c2nc(C3=C(c4c[nH]c5ccccc45)C(=O)NC3=O)c3ccccc3n2)CC1 [Sotrastaurin] | 1 | 0 | 0.7 | 0 |
| C=CC(=O)Nc1cccc(Nc2nc(Nc3ccc(OCCOC)cc3)ncc2F)c1 [Spebrutinib] | 0 | 0.4 | 0 | 0 |
| O=[N+]([O-])c1ccc2c(c1)S(=O)(=O)C=C2 [Stattic] | 6.6 | 9.4 | 4.4 | 7.2 |
| CC(C)n1cnc2c(NCCc3ccc(O)cc3)nc(-c3csc4ccccc34)nc21 [StemRegenin 1] | 2.3 | 0.2 | 0.8 | 0.4 |
| CN(N=O)C(=O)N[C@@H](C=O)[C@@H](O)[C@H](O)[C@H](O)CO [Streptozocin] | 0.1 | 0.3 | 0 | 0 |
| CCN(CC)CCNC(=O)c1c(C)[nH]c(/C=C2\C(=O)Nc3ccc(F)cc32)c1C [Sunitinib] | 0 | 1.1 | 0 | 0 |
| CC(C)(O)CC(=O)NCCn1ccc2ncnc(Nc3ccc(Oc4cccc(C(F)(F)F)c4)c(Cl)c3)c21 [TAK-285] | 0.9 | 0 | 0 | 0 |
| N#Cc1c(Oc2ccc(F)c(NC(=O)Cc3cccc(C(F)(F)F)c3)c2)ccc2nc(NC(=O)C3CC3)sc12 [TAK-632] | 1.6 | 8.7 | 17.8 | 5.3 |
| CCc1nc(-c2cccc(C)c2)c(-c2ccnc(NC(=O)c3ccccc3)c2)s1 [TAK-715] | 0 | 0.8 | 0.3 | 0 |
| Cn1c(=O)c(F)c(Nc2ccc(I)cc2F)c2c(=O)n(C[C@@H](O)CO)cnc21 [TAK-733] | 4.8 | 12.8 | 6.9 | 8.8 |
| CCS(=O)(=O)c1cccc(-c2cc(C(=O)NC3CCN(C)CC3)c(C)c3[nH]c4ncc(C)cc4c23)c1 [TAK-901] | 0 | 3.6 | 0 | 0 |
| Cc1cccc(-c2[nH]c(CNc3ccccc3F)nc2-c2ccc3ncnn3c2)n1 [TEW-7197] | 9.1 | 0 | 0.9 | 0 |

| Compound | drug sensitivity score (MDA-MB-231 [1]; shRNA: shPPFIA1_1) [DSS] | drug sensitivity score (MDA-MB-231 [1]; shRNA: shScramble) [DSS] | drug sensitivity score (MDA-MB-231 [2]; shRNA: shPPFIA1_1) [DSS] | drug sensitivity score (MDA-MB-231 [2]; shRNA: shScramble) [DSS] |
| --- | --- | --- | --- | --- |
| Nc1nc(N)c2nc(-c3cccc(O)c3)c(-c3cccc(O)c3)nc2n1 [TG100-115] | 5.7 | 19 | 0 | 0 |
| Cc1cc(C(C)Nc2ccccc2)c2nc(N3CCOCC3)cc(=O)n2c1 (stereo not drawn) [TGX-221] | 0 | 3.2 | 0.6 | 0 |
| Nc1nc(NC2CC2)cc(-c2cccc(Cl)c2Cl)n1 [TH588] | 0.9 | 0.8 | 0.6 | 0.5 |
| NC(=O)Nc1sc(-c2ccc(F)cc2)cc1C(N)=O [TPCA-1] | 0 | 1.9 | 0.9 | 0 |
| Clc1ccccc1C(c1ccccc1)(c1ccccc1)n1cccn1 [TRAM-34] | 0 | 0 | 0 | 0 |
| CC(=O)Nc1ccc(C(=O)Nc2ccccc2N)cc1 [Tacedinaline] | 0 | 0 | 0 | 0 |
| C=CC[C@@H]1/C=C(\C)C[C@H](C)C[C@H](OC)[C@H]2O[C@@](O)(C(=O)C(=O)N3CCCC[C@H]3C(=O)O[C@H](/C(C)=C/[C@@H]3CC[C@@H](O)[C@H](OC)C3)[C@H](C)[C@@H](O)CC1=O)[C@H](C)C[C@@H]2OC [Tacrolimus] | 0 | 0 | 0 | 0 |
| Cn1ncnc1[C@H]1c2n[nH]c(=O)c3cc(F)cc(c23)N[C@@H]1c1ccc(F)cc1 [Talazoparib] | 0 | 0.4 | 0 | 0 |
| C[C@@H]1CN(Cc2ccc(F)cc2)[C@@H](C)CN1C(=O)c1cc2c(C(=O)C(=O)N(C)C)cn(C)c2cc1Cl [Talmapimod] | 0 | 0 | 0 | 0 |
| COc1cc(Nc2ncc(F)c(Nc3ccc4c(n3)NC(=O)C(C)(C)O4)n2)cc(OC)c1OC [Tamatinib] | 0 | 1.8 | 0.2 | 0 |
| CC/C(=C(\c1ccccc1)c1ccc(OCCN(C)C)cc1)c1ccccc1 [Tamoxifen] | 1.8 | 1 | 6.3 | 1.8 |
| COc1cc2c(N3CCN(C(=O)Nc4ccc(OC(C)C)cc4)CC3)ncnc2cc1OCCCN1CCCCC1 [Tandutinib] | 9.9 | 6.5 | 0 | 0 |
| C=CCNC1=C2C[C@@H](C)C[C@H](OC)[C@H](O)[C@@H](C)/C=C(\C)[C@H](OC(N)=O)[C@@H](OC)/C=C\C=C(/C)C(=O)NC(=CC1=O)C2=O [Tanespimycin] | 6.7 | 12.3 | 2 | 3.1 |
| O[C@H]1CC[C@H](Nc2ncc3nc(Nc4c(F)cc(F)cc4F)n([C@H]4CCOC4)c3n2)CC1 [Tanzisertib] | 0 | 3.1 | 0 | 0 |
| C[C@@H](C(=O)O)c1ccc(-c2ccccc2)c(F)c1 [Tarenflurbil] | 0 | 0 | 0 | 0 |
| Cc1nc(-c2cn3c(n2)-c2ccc(-c4cnn(C(C)(C)C(N)=O)c4)cc2OCC3)n(C(C)C)n1 [Taselisib] | 0 | 0.9 | 0 | 0 |
| COc1cccc2c1c(O)c(C(=O)N(C)c1ccc(C(F)(F)F)cc1)c(=O)n2C [Tasquinimod] | 0 | 3.4 | 0 | 0 |
| CCN(c1cc(-c2ccc(CN3CCOCC3)cc2)cc(C(=O)NCc2c(C)cc(C)[nH]c2=O)c1C)C1CCOCC1 [Tazemetostat] | 1 | 0 | 0 | 0 |
| CNC(=O)c1cc(COc2nnc(Nc3ccc(Cl)cc3)c3ccoc23)ccn1 [Telatinib] | 0 | 0 | 0 | 0 |
| Cn1nnc2c(C(N)=O)ncn2c1=O [Temozolomide] | 1.8 | 2.6 | 0 | 0 |
